The values below come from patent publication US20240293367A1, “METHODS OF TREATING DISORDERS WITH A […]” (Cybin IRL Limited, priority 2023, published 2024).

In one series the test system is MDD patients. Conditions: cited from earlier work; for placebo subtracted difference in LSM change from baseline on MADRS score: adjunctive to antidepressants; for placebo subtracted difference in (LSM) change from baseline MADRS total score: pivotal clinical studies, package inserts.
The nature of series [1]: 28-day (4-week GLP) toxicology study in dogs, toxicokinetic exposure. The note with it: dog, in vivo, 0.5 mg/kg; internal 4-week GLP toxicology study; read-out: Dog Cmax at 0.5 mg/kg. From the text:
The exposure limits will be applied on mean values within a cohort.

The conditions of series [2]: psilocin after psilocybin, Studerus et al. 2011; cited from earlier work.
For series [3] the following is noted: female, rat, in vivo, 40 mg/kg.
A short description of series [4]: Clinical PD of psilocin after psilocybin (VAS-Any drug effect, MEQ30, 5D-ASC versus psilocin Cmax). The class given is in vivo, human. From the text: To evaluate potential psychedelic effects at various doses of psilocin-d10, data were summarized/modeled from published literature for psilocin after psilocybin administration.
First, the VAS—Any drug effect score was modeled based on data from Holze et al. 2022 using a linear effect relationship to determine psilocin plasma concentrations in which a VAS—Any drug effect score of 20, 40, 60, and 80 mm was reached. This relationship is presented graphically in FIG. 4, based on the extraction of mean PK and PD data from the figures in Holze et al. 2022. Here, a linear concentration-effect relationship was identified with no evidence of hysteresis. As is evident from this modeled linear concentration-effect relationship according to Holze et al. 2022 (y=0.17+3.9x), a psilocin plasma concentration of about 15.34 ng/ml is the predicted amount required to achieve VAS-Any drug effect scores above 60 mm, a psilocin plasma concentration of about 17.9 ng/ml is the predicted amount required to achieve VAS-Any drug effect scores above 70 mm, and a psilocin plasma concentration of about 20.47 ng/ml is the predicted amount required to achieve a VAS-Any drug effect score of 80 mm.
This modeled relationship between psilocin plasma concentration and VAS-Any drug effect score is also in agreement with reported literature studies relating plasma psilocin concentrations (μg/L) to neocortical serotonin 5-HT2A receptor occupancy % and subjective intensity of the psychedelic experience (see Madsen MK, Fisher PM, Burmester D, et al (2019). Psychedelic effects of psilocybin correlate with serotonin 2A receptor occupancy and plasma psilocin levels. Neuropsychopharmacology, 44:1328-34), albeit the Madsen et al. study uses a VAS scoring system related specifically to psychedelic effects. The psilocin concentrations needed to reach the plateau in receptor occupancy and the required VAS scores (psychedelic effects) can be seen graphically in FIG. 5 and FIGS. 6A-6B, which are reproduced from Madsen et al. 2019 (FIGS. 3 and 4, respectively, in Madsen et al. 2019). […]

[5] abbreviates: linear model of Holze et al. 2022 data.

Structures are written as SMILES. Counter-ions that a name gives are not always drawn. Like-named read-outs stand apart in the source and are kept apart here.

`CN(C)CCc1c[nH]c2ccccc12` [N,N-dimethyltryptamine (DMT), N,N-dimethyltryptamine]: the “MADRS CFB reduction over placebo” value with MDD patients (intravenous, two-weeks postdose, Small Pharma press release) is given as −7.4.
`CN(C)C(=O)N[C@H]1CC[C@H](CCN2CCN(c3cccc(Cl)c3Cl)CC2)CC1` [cariprazine]: the “placebo subtracted difference in LSM change from baseline on MADRS score” value was −2.5 in the series with MDD patients (1.5 mg/day fixed dose, 95% CI: −4.2, −0.9) and −2.2 in the series with MDD patients (flexible doses of 2-4.5 mg/day, 95% CI: −3.7, −0.6). Also, in the series on MDD patients, the “placebo subtracted difference in (LSM) change from baseline MADRS total score” value is recorded as −2.2 to −2.5.
For `CCN(CC)C(=O)[C@@]1(c2ccccc2)C[C@H]1CN` [levomilnacipram], the “placebo subtracted difference in (LSM) change from baseline MADRS total score” value in the series on MDD patients was −3.1 to −4.9.
Turning to `CN(C)CCc1c[nH]c2cccc(O)c12` [psilocin, 4-hydroxy-N,N-dimethyltryptamine], the Cmax in series [1] is 51.7 ng/mL; in series [3], 343 ng/mL. In addition, the “psilocin Cmax with no change in list of complaints + 5D-ASC” value in series [2] is reported as 1.83 ng/mL. Further, the “psilocin plasma concentration predicted for VAS-Any drug effect scores above 70 mm” value in series [4] (linear concentration-effect model) is recorded as “about 17.9 ng/ml”. Further, the “psilocin Cmax / plasma concentration for VAS - Any drug effect: 20” value in series [4] (setting [5]) is reported as 5.08 ng/mL. In addition, the “psilocin Cmax / plasma concentration for VAS - Any drug effect: 40” value in series [4] (setting [5]) was 10.2 ng/mL.
Consider `N#Cc1ccc2[nH]cc(CCCCN3CCN(c4ccc5oc(C(N)=O)cc5c4)CC3)c2c1` [vilazodone hydrochloride], for which, in the series on MDD patients, the “placebo subtracted difference in (LSM) change from baseline MADRS total score” value was −2.5 to −5.1.
`Cc1ccc(Sc2ccccc2N2CCNCC2)c(C)c1` [vortioxetine]: in the series with MDD patients (20 mg, meta-analysis of 11 placebo-controlled trials), the “difference in mean change from baseline of MADRS scores between placebo and drug” value was 4.57. For the same molecule, the “placebo subtracted difference in (LSM) change from baseline MADRS total score” value in the series on MDD patients is −2.8 to −5.9.
